Assay results from patent US8716478B2, “Boron-containing small molecules” (Anacor Pharmaceuticals, Inc., priority 2010, dated 2014).

Key:
[1] = test system: Schistosoma mansoni schistosomula; test: Schistosoma mansoni schistosomula phenotypic screen; details: First Set
Excerpt: Puerto Rican isolates of S. mansoni using Biomphalaria glabrata snails and golden hamsters as intermediate and definitive hosts, respectively, were maintained and handled in the University of California-San Francisco Sandler Center for Tropical Medicine. Patent B. glabrata snails (6-8 weeks after exposure to 5-10 infectious miracidia) were induced to shed infective larvae (cercariae) under light stimulus into the surrounding water. Cercariae were washed in rounds of ice-cold water and concentrated through and over sieves of varying pore sizes. They were then mechanically sheared (separation of heads from tails) as described in Colley D G, et al. Exp Parasitol 1974, 35:44-51, in ice-cold Incomplete Medium 169 (as described in Basch P F. J Parasitol 1981, 67:179-185, minus FBS and antibiotics) by passing 15 times through a double headed 22-gauge syringe needle connected to two 10 mL syringes. The resulting cercarial heads (schistosomula) were separated from their tails by swirling in a petri dish. Concentrated schistosomula were added to a sterile 1.5 mL centrifuge tube and allowed to settle over ice. Schistosomula were transferred to a sterile environment and washed 4 times in Incomplete Medium 169 prior to plating.
Two sets of screening were performed. In the first set, compounds were screened against schistosomula and observations were made at 24 hours, 2 days, 3 days, 4 days, and 6 days. In the second set, compounds were screened against schistosomula with observations at 24 hours, 2 days, 3 days, and 4 days and adult worms at 7 hours, 24 hours, 4 days, and 6 days.
Plates contain 200 schistosomula/well in […] complete Basch medium and were maintained at 37° C. in a 5% CO2 atmosphere. All compounds were tested in duplicate with at least two experimental replicates. Compounds and control compounds were added to the plates using the Biomek FXp using 96-well disposable tips. Final concentration of DMSO in each well was 0.5%.
A semi-quantitative and controlled nomenclature for phenotypes that can arise as a result of compound insult to both schistosomula and adults was utilized (Abdulla M H, et al., PLoS Negl Trop Dis 2009, 3:e478). Phenotypes were recorded by visual inspection and on a flexible time basis but at least at 24 h and 4 day time-points in the case of large scale screening. […] To help eliminate bias, two screen analysts scored phenotypes ‘blind’ both to knowledge of the contents of each screening plate and the phenotypes scored by his/her colleague. Upon completing their individual assessments, each analyst's ‘hit sheet’ was then compared to derive a ‘consensus hit sheet’. Discrepancies in analysts' hit sheets were re-evaluated under the microscope to eventually make a consensus hit call.
Hyper-coiled and coiled represent a verbal description of the visual phenotype as compared to the DMSO control. The + and ++ and +++ means more of the phenotype which preceded it. The − means less of the phenotype which preceded it. Results

[2] = test system: TNF-α in peripheral blood mononuclear cells (PBMCs); test: TNF-α inhibition in LPS-stimulated peripheral blood mononuclear cells; format: cell-based; details: PBMC; PBMCs, LPS 1 μg/mL for 24 h; read-out: Proinflammatory TNF-α IC50
Method: Peripheral blood mononuclear cells (PBMCs) pooled from 10-20 donors were obtained from a local blood bank, ficoll gradient purified, and stored frozen in liquid nitrogen. Cells were thawed and seeded into 96-well plates at 5×10^5 cells/well in RPMI 1640 with 10% heat-inactivated fetal calf serum (MediaTech, Inc, Hearndon, Va., USA), Test articles were evaluated at the indicated concentrations in 150 μL media containing <2% DMSO, final, with stimulant and PBMCs. Cells were stimulated with lipopolysaccharide (LPS, phenol-extract from E. coli, Sigma-Aldrich, St. Louis, Mo.) at 1 μg/mL. Stimulation was with LPS for 24 h to measure TNF-α. Cytokines in supernatants were analyzed with a FACSArray flow cytometer (BD Biosciences, San Jose, Calif., USA) using the BD Cytometric Bead Array (CBA) Flex Set (BD Biosciences). IC50 values were calculated using the four parameter logistic equation.

TNF-α = test: In vivo TNF-α release in LPS treated mice; parameters: species or system Swiss Webster mice
Method: In vivo TNF-α release was measured in Swiss Webster mice, 10/group. Animals were dosed via oral gavage with drug 1% CMC suspension. Thirty minutes later LPS, 1.5 mg/kg was administered by intraperitoneal injection. Ninety minutes later animals were sacrificed, blood was collected by exsangination and serum prepared for analysis. TNF-α concentration was assessed by ELISA, non-drug treated animals had TNF-α levels 1000-3000 pg/mL. 6-(1-Hydroxy-1,3-dihydrobenzo[c][1,2]oxaborol-5-yloxy)-2-(2-isopropoxyethoxy)nicotinonitrile (D140) and 6-(1-hydroxy-1,3-dihydrobenzo[c][1,2]oxaborol-5-yloxy)-2-(4-oxopentyloxy)nicotinonitrile (D141) are disclosed in U.S. patent application Ser. No. 12/399,015, filed Mar. 5, 2009.

## COCCNc1ccc(C#N)c(Oc2ccc3c(c2)COB3O)n1 [2-(1-Hydroxy-1,3-dihydro-benzo[c][1,2]oxaborol-5-yloxy)-6-(2-methoxy-ethylamino)-nicotinonitrile]
[1]
  schistosomula phenotype, 24 h: O+

## N#Cc1ccc(Oc2ccc3c(c2)COB3O)nc1OCC(F)F [2-(2,2-Difluoro-ethoxy)-6-(1-hydroxy-1,3-dihydro-benzo[c][1,2]oxaborol-5-yloxy)-nicotinonitrile]
[1]
  schistosomula phenotype, 24 h: O+

## CCOc1nc(Oc2ccc3c(c2)COB3O)ccc1C#N [2-Ethoxy-6-(1-hydroxy-1,3-dihydro-benzo[c][1,2]oxaborol-5-yloxy)-nicotinonitrile]
[1]
  schistosomula phenotype, 24 h: O++

## CC(C)(C)Nc1nc(Oc2ccc3c(c2)COB3O)ccc1C#N [2-tert-butylamino-6-(1-hydroxy-1,3-dihydro-benzo[c][1,2]oxaborol-5-yloxy)-nicotinonitrile]
[1]
  schistosomula phenotype, 24 h: O (overactive)

## N#Cc1ccc(Oc2ccc3c(c2)COB3O)c(OCC2CC2)c1 [3-(Cyclopropylmethoxy)-4-(1-hydroxy-1,3-dihydrobenzo[c][1,2]oxaborol-5-yloxy)benzonitrile]
[1]
  schistosomula phenotype, 24 h: O+
  schistosomula phenotype, day 6: partial D

## CC(C)OC(=O)c1ccc(Oc2ccc3c(c2)COB3O)c(F)c1 [5-(2-Fluoro-4-isopropyloxycarbonylphenoxy)-1-hydroxy-2,1-benzoxaborole]
[1]
  schistosomula phenotype, day 6: O−, R

## CCOC(=O)c1ccc(Oc2ccc3c(c2)COB3O)c(Oc2cc(C#N)ccn2)c1 [5-[4-Ethoxycarbonyl-2-(4-cyanopyridin-2-yloxy)phenoxy]-1,3-dihydro-1-hydroxy-2,1-benzoxaborole]
[1]
  schistosomula phenotype, 24 h: O+

## N#Cc1ccc(Oc2ccc3c(c2)COB3O)nc1OCC(F)(F)F [6-(1-Hydroxy-1,3-dihydro-benzo[c][1,2]oxaborol-5-yloxy)-2-(2,2,2-trifluoro-ethoxy)-nicotinonitrile]
[1]
  schistosomula phenotype, 24 h: O (overactive)

## COCCNc1nc(Oc2ccc3c(c2)COB3O)ccc1C#N [6-(1-Hydroxy-1,3-dihydro-benzo[c][1,2]oxaborol-5-yloxy)-2-(2-methoxy-ethylamino)-nicotinonitrile]
[1]
  schistosomula phenotype, 24 h: O−

## CC(=O)OCCOc1nc(Oc2ccc3c(c2)COB3O)ccc1C#N [6-(1-Hydroxy-1,3-dihydro-benzo[c][1,2]oxaborol-5-yloxy)-2-(acetyloxyethoxy)-nicotinonitrile]
[1]
  schistosomula phenotype, 24 h: O++

## CN(CCO)c1nc(Oc2ccc3c(c2)COB3O)ccc1C#N [6-(1-Hydroxy-1,3-dihydro-benzo[c][1,2]oxaborol-5-yloxy)-2-[(2-hydroxy-ethyl)-methyl-amino]-nicotinonitrile]
[1]
  schistosomula phenotype, 24 h: O−
  schistosomula phenotype, day 6: R O
[1]; day 3
  schistosomula phenotype, day 3: O−

## CC(C)Oc1nc(Oc2ccc3c(c2)COB3O)ccc1C#N [6-(1-Hydroxy-1,3-dihydro-benzo[c][1,2]oxaborol-5-yloxy)-2-isopropoxy-nicotinonitrile]
[1]
  schistosomula phenotype, 24 h: O+

## CCCOc1nc(Oc2ccc3c(c2)COB3O)ccc1C#N [6-(1-Hydroxy-1,3-dihydro-benzo[c][1,2]oxaborol-5-yloxy)-2-propoxy-nicotinonitrile]
[1]
  schistosomula phenotype, 24 h: O+

## N#Cc1ccc(Oc2ccc3c(c2)COB3O)nc1N1CCCC1 [6-(1-Hydroxy-1,3-dihydro-benzo[c][1,2]oxaborol-5-yloxy)-2-pyrrolidin-1-yl-nicotinonitrile]
[1]
  schistosomula phenotype, 24 h: O+

## N#Cc1ccc(Oc2ccc3c(c2)COB3O)nc1NCCO [6-(1-hydroxy-1,3-dihydro-benzo[c][1,2]oxaborol-5-yloxy)-2-(2-hydroxy-ethylamino)-nicotinonitrile]
[1]
  schistosomula phenotype, 24 h: O−
  schistosomula phenotype, day 6: O+ R

## COCCN(C)c1nc(Oc2ccc3c(c2)COB3O)ccc1C#N [6-(1-hydroxy-1,3-dihydro-benzo[c][1,2]oxaborol-5-yloxy)-2-[(2-methoxy-ethyl)-methyl-amino]-nicotinonitrile]
[1]
  schistosomula phenotype, 24 h: O+

## N#Cc1cc(Cl)c(Oc2ccc3c(c2)COB3O)nc1OCCCC1(O)CC1 [Compound D233, 5-Chloro-6-(1-hydroxy-1,3-dihydrobenzo[c][1,2]oxaborol-5-yloxy)-2-(3-(1-hydroxycyclopropyl)propoxy)nicotinonitrile]
[2]
  IC50: 13 nM

## CCC(=O)CCCOc1nc(Oc2ccc3c(c2)COB3O)c(Cl)cc1C#N [Compound D234, 5-chloro-6-(1-hydroxy-1,3-dihydrobenzo[c][1,2]oxaborol-5-yloxy)-2-(4-oxohexyloxy)nicotinonitrile]
[2]
  IC50: 2.1 nM

## N#Cc1cc(Cl)c(Oc2ccc3c(c2)COB3O)nc1OC1CCOCC1 [Compound D240, 5-Chloro-6-(1-hydroxy-1,3-dihydrobenzo[c][1,2]oxaborol-5-yloxy)-2-(tetrahydro-2H-pyran-4-yloxy)nicotinonitrile]
[2]
  IC50: 3.8 nM

## CC(C)OCCOc1nc(Oc2ccc3c(c2)C(C)OB3O)c(Cl)cc1C#N (centres unmarked) [Compound D252, 5-Chloro-6-(1-hydroxy-3-methyl-1,3-dihydrobenzo[c][1,2]oxaborol-5-yloxy)-2-(2-isopropoxyethoxy)nicotinonitrile]
[2]
  IC50: 160 nM

## CCOC(=O)c1ccc(Oc2ccc3c(c2)COB3O)nc1OCC [Ethyl 2-ethoxy-6-(1-hydroxy-1,3-dihydrobenzo[c][1,2]oxaborol-5-yloxy)nicotinate]
[1]
  schistosomula phenotype, 24 h: O+

## CCOC(=O)c1cnc(Oc2ccc3c(c2)COB3O)c(Cl)c1 [Ethyl 5-chloro-6-(1-hydroxy-1,3-dihydrobenzo[c][1,2]oxaborol-5-yloxy)nicotinate]
[1]
  schistosomula phenotype, 24 h: O++

## CC(C)OC(=O)c1ccc(Oc2ccc3c(c2)COB3O)nc1 [Isopropyl 6-(1-hydroxy-1,3-dihydrobenzo[c][1,2]oxaborol-5-yloxy)nicotinate]
[1]
  schistosomula phenotype, 24 h: O+

## CC(=O)NCc1ccc(Oc2ccc3c(c2)COB3O)cc1 [N-[4-(1-Hydroxy-1,3-dihydro-benzo[c][1,2]oxaborol-5-yloxy)-benzyl]-acetamide]
[1]; day 4
  schistosomula phenotype, day 4: D (dead)

## C[C@]12C=CC(=O)C=C1CC[C@@H]1[C@@H]2[C@@H](O)C[C@@]2(C)[C@H]1CC[C@]2(O)C(=O)CO [Prednisolone]
TNF-α; Oral Dose 0.01 mg/kg
  % Inhibition of TNFa Blood Levels in LPS Treated Mice: 16%
TNF-α; Oral Dose 0.1 mg/kg
  % Inhibition of TNFa Blood Levels in LPS Treated Mice: 54.3%
TNF-α; Oral Dose 3 mg/kg
  % Inhibition of TNFa Blood Levels in LPS Treated Mice: 81.6%
TNF-α; Oral Dose 10 mg/kg
  % Inhibition of TNFa Blood Levels in LPS Treated Mice: 84.5%
TNF-α; Oral Dose 100 mg/kg
  % Inhibition of TNFa Blood Levels in LPS Treated Mice: 85.9%

## O=C(Nc1c(Cl)cncc1Cl)c1ccc(OC(F)F)c(OCC2CC2)c1 [Roflumilast]
TNF-α; Oral Dose 0.3 mg/kg
  % Inhibition of TNFa Blood Levels in LPS Treated Mice: 0%
TNF-α; Oral Dose 1 mg/kg
  % Inhibition of TNFa Blood Levels in LPS Treated Mice: 24.9%
TNF-α; Oral Dose 3 mg/kg
  % Inhibition of TNFa Blood Levels in LPS Treated Mice: 52.5%
TNF-α; Oral Dose 10 mg/kg
  % Inhibition of TNFa Blood Levels in LPS Treated Mice: 71.5%
TNF-α; Oral Dose 30 mg/kg
  % Inhibition of TNFa Blood Levels in LPS Treated Mice: 73.5%

## COc1ccc(C2CNC(=O)C2)cc1OC1CCCC1 (centres unmarked) [Rolipram]
TNF-α; Oral Dose 10 mg/kg
  % Inhibition of TNFa Blood Levels in LPS Treated Mice: 8.6%
TNF-α; Oral Dose 30 mg/kg
  % Inhibition of TNFa Blood Levels in LPS Treated Mice: 62.7%

## CCCOC(=O)c1ccc(Oc2ccc3c(c2)COB3O)nc1 [n-Propyl 6-(1-hydroxy-1,3-dihydrobenzo[c][1,2]oxaborol-5-yloxy)nicotinate]
[1]
  schistosomula phenotype, 24 h: O+
